Where a name gives a salt, the structure may show the parent alone. Read-outs that look alike come from different tables or passages of the source.
Columns and labels:
MRSA biofilms [1] = assay: MBEC, MBEC Inoculation Tray (Innovotech), to 10^2 CFU/peg in 24 hours; type: cell-based; conditions: Staphylococcus aureus, read-out: MICs (μg/mL): MRSA
MRSA biofilms [2] = assay: EBEC, high number biofilms on PEEK membranes, 10^9 to 10^2 CFU/PEEK membrane in 24 hours; type: cell-based; conditions: Staphylococcus aureus, read-out: MICs (μg/mL) II: MRSA
P. aeruginosa = assay: MIC, 96-well CAMHB, 10^5 to 10^2 CFU/mL in 24 hours; type: cell-based, Pseudomonas aeruginosa; conditions: for MIC: Pseudomonas aeruginosa
Outline: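 Broth microdilution in CAMHB with about 5×10^5 CFU/mL inoculum, incubated 24 h at 37 °C with graded polyamine compound concentrations. Surviving CFU/mL determined by plating each well on TSA for 24 h at 37 °C; n=8 per concentration.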

A. baumannii biofilms = assay: EBEC, high number biofilms on PEEK membranes, 10^9 to 10^2 CFU/PEEK membrane in 24 hours; type: cell-based, Acinetobacter baumannii
Protocol: In addition to determining the MIC and the MBEC of polyamine compounds against planktonic bacteria and low number biofilms, our group wanted to determine the efficacy of polyamine compounds against high number biofilms. To do so, biofilms were grown on the surface of polyetheretherketone (PEEK) membranes using a membrane biofilm reactor. This reactor is similar to the CDC biofilm reactor, but rather than growing biofilms on coupon surfaces, the reactor was modified to hold PEEK membranes. In short, to grow biofilms within this system, 500 mL of brain heart infusion (BHI) broth were inoculated with 1 mL of a 0.5 McFarland. The reactor was placed on a hot plate set at 34° C. and the bacteria were grown under batch conditions for 24 hours. Following this protocol, biofilms typically grow to 10^9 CFU/PEEK membrane. […] A solution of 10% BHI was then flowed through the reactor at a rate of 6.94 mL/min for an additional 24 hours. PEEK membranes were then removed and placed into 2 mL of CAMHB that contained a desired concentration of polyamine compound or antibiotic. The EBEC was defined as the concentration of antimicrobial required to reduce a biofilm from approximately 10^9 CFU/PEEK membrane to approximately 10^2 CFU/PEEK membrane in a 24-hour period.
In addition to determining the MIC and the MBEC of compounds against planktonic bacteria and low number biofilms, the efficacy of the compounds of the invention against high number biofilms is determined. To do so, biofilms are grown on the surface of PEEK membranes using a membrane biofilm reactor (Williams, D. L., Haymond, B. S. & Bloebaum, R. D. Use of delrin plastic in a modified CDC biofilm reactor. Res J Microbiol 6, 425-429 (2011); Williams, D. L., Woodbury, K. L., Haymond, B. S., Parker, A. E. & Bloebaum, R. D. A modified CDC biofilm reactor to produce mature biofilms on the surface of PEEK membranes for an in vivo animal model application. Curr Microbiol 62, 1657-1663 (2011); Williams, D. L. et al., In Vivo Efficacy of a Silicone—Cationic Steroid Antimicrobial Coating to Prevent Implant-Related Infection. Biomaterials 33, 8641-8656 (2012); Williams, D. L. et al., Experimental model of biofilm implant-related osteomyelitis to test combination biomaterials using biofilms as initial inocula. J Biomed Mat Res A 100, 1888-1900 (2012)). This reactor is similar to the CDC biofilm reactor, but rather than growing biofilms on coupon surfaces, the reactor was modified to hold PEEK membranes. In short, to grow biofilms within this system, 500 mL of brain heart infusion (BHI) broth is inoculated with 1 mL of a 0.5 McFarland. The reactor is placed on a hot plate set at 34° C. and the bacteria grown under batch conditions for 24 hours. A solution of 10% BHI will then be flowed through the reactor at a rate of 6.94 mL/min for an additional 24 hours. Following this protocol, biofilms typically grow to 10^9 CFU/PEEK membrane. PEEK membranes is removed and placed into 2 mL of CAMHB that contain a desired concentration of the test compound. The EBEC is defined as the concentration of antimicrobial required to reduce a biofilm from approximately 10^9 CFU/PEEK membrane to approximately 10^2 CFU/PEEK membrane in a 24-hour period.
EBEC data were collected to determine the efficacy of CZ-52, CZ-58 and traditional antibiotics against high number biofilms containing approximately 10^9 CFU grown on the surface of a polyetheretherketone (PEEK) membrane. […] In contrast, at 250 μg/mL CZ-52 was able to reduce MRSA biofilms by greater than 7 log10 units in a 24-hour period. Although the MIC of CZ-58 was lower against MRSA compared to A. baumannii, CZ-58 had greater activity against biofilms of A. baumannii than against MRSA biofilms in the EBEC assay. […] Although the MIC of CZ-58 was “high” compared to MICs of traditional antibiotics, the efficacy against biofilms was promising.

L-929 cells (ATCC CCL-1) = assay: Minimal Essential Media (MEM) Elution cytotoxicity test; type: cell-based
Outline: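 L-929 cells (ATCC CCL-1) were seeded in multiwell plates and grown to roughly 80% confluence. Test article dilutions (1:2, 1:4, 1:8, 1:16) and control extracts were applied in triplicate and incubated 48±3 hours at 37±1° C. in 5±1% CO2. Wells were scored microscopically for morphological cytotoxicity on a 0–4 scale and averaged; Pass required grade not greater than 2 per USP <87>.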

## NCCCNCCCNCc1ccccc1 [CZ-7, benzylnorspermidine]
MRSA biofilms [1]; Table 3A c4, group head missing, probably MBEC
  MIC: > 500 µg/mL
MRSA biofilms [2]; Table 3B c2, group head missing
  MIC: > 5000 µg/mL
P. aeruginosa; Table 3A c2, read-out: MICs (μg/mL): P. aeruginosa
  MIC: > 500 µg/mL
P. aeruginosa; Table 5, read-out: MIC (P. aeruginosa)
  MIC: > 100 µM
A. baumannii biofilms; Table 4
  EBEC μg/mL (μM) A. baumannii: >10,000 μg/mL
A. baumannii biofilms; Table 4, value in parentheses
  EBEC μg/mL (μM) A. baumannii: (>45,180) μM

## CN[C@H](CC(C)C)C(=O)N[C@H]1C(=O)N[C@@H](CC(N)=O)C(=O)N[C@H]2C(=O)N[C@H]3C(=O)N[C@H](C(=O)N[C@H](C(=O)O)c4cc(O)cc(O)c4-c4cc3ccc4O)[C@H](O)c3ccc(c(Cl)c3)Oc3cc2cc(c3O[C@@H]2O[C@H](CO)[C@@H](O)[C@H](O)[C@H]2O[C@H]2C[C@](C)(N)[C@H](O)[C@H](C)O2)Oc2ccc(cc2Cl)[C@H]1O [vancomycin, reference compound]
MRSA biofilms [1]
  MIC: > 500 µg/mL
MRSA biofilms [2]
  MIC: > 25000 µg/mL

## NCCCNCCCNCc1cc(CNCCCNCCCN)cc(-c2ccccc2)c1 [CZ-58, N^1,N^1′-([1,1′-biphenyl]-3,5-diylbis(methylene))bis(N^3-(3-ammoniopropyl)propane-1,3-diaminium) chloride]
L-929 cells (ATCC CCL-1); Table 10A, 25 μg/mL
  Results Pass/Fail: Fail (a numerical grade greater than 2 is considered a cytotoxic effect, or a failing score (Fail))
L-929 cells (ATCC CCL-1); Table 10A, dilution 1:2 of 25 μg/mL
  Results Pass/Fail: Fail (a numerical grade greater than 2 is considered a cytotoxic effect, or a failing score (Fail))
L-929 cells (ATCC CCL-1); Table 10A, dilution 1:4 of 25 μg/mL
  Results Pass/Fail: Pass (receives a passing score (Pass) if the reactivity grade is not greater than grade 2 or a mild reactivity)
L-929 cells (ATCC CCL-1); Table 10A, dilution 1:8 of 25 μg/mL
  Results Pass/Fail: Pass (receives a passing score (Pass) if the reactivity grade is not greater than grade 2 or a mild reactivity)
L-929 cells (ATCC CCL-1); Table 10A, dilution 1:16 of 25 μg/mL
  Results Pass/Fail: Pass (receives a passing score (Pass) if the reactivity grade is not greater than grade 2 or a mild reactivity)
P. aeruginosa; Table 5
  MIC (P. aeruginosa): ++ to +++
A. baumannii biofilms; Table 4
  EBEC μg/mL (μM) A. baumannii: 400 µg/mL

## Polymyxin B sulfate [reference compound]
A. baumannii biofilms; Table 4
  EBEC μg/mL (μM) A. baumannii: 1,000 μg/mL
A. baumannii biofilms; Table 4, value in parentheses
  EBEC μg/mL (μM) A. baumannii: (722) μM

## CC(C)CNCCCNCCCNCc1cc(CNCCCNCCCNCC(C)C)cc(-c2ccccc2)c1 [CZ-86, N^1,N^1′-([1,1′-biphenyl]-3,5-diylbis(methylene))bis(N^3-(3-(isobutylamino)propyl)propane-1,3-diamine), hydrochloride salt]
L-929 cells (ATCC CCL-1); Table 8A, 400 μg/mL
  Results Pass/Fail: Fail (a numerical grade greater than 2 is considered a cytotoxic effect, or a failing score (Fail))
L-929 cells (ATCC CCL-1); Table 8A, dilution 1:2 of 400 μg/mL
  Results Pass/Fail: Fail (a numerical grade greater than 2 is considered a cytotoxic effect, or a failing score (Fail))
L-929 cells (ATCC CCL-1); Table 8A, dilution 1:4 of 400 μg/mL
  Results Pass/Fail: Fail (a numerical grade greater than 2 is considered a cytotoxic effect, or a failing score (Fail))
L-929 cells (ATCC CCL-1); Table 8A, dilution 1:8 of 400 μg/mL
  Results Pass/Fail: Pass (receives a passing score (Pass) if the reactivity grade is not greater than grade 2 or a mild reactivity)
L-929 cells (ATCC CCL-1); Table 8A, dilution 1:16 of 400 μg/mL
  Results Pass/Fail: Pass (receives a passing score (Pass) if the reactivity grade is not greater than grade 2 or a mild reactivity)
P. aeruginosa; Table 5
  MIC (P. aeruginosa): ++ to +++

## NCCCNCCCNCc1cccc(CNCCCNCCCN)c1 [CZ-25, N^1,N^1′-(1,3-phenylenebis(methylene))bis(N3-(3-ammoniopropyl)propane-1,3-diaminium) chloride]
P. aeruginosa; read-out: MICs (μg/mL): P. aeruginosa, Table 3A c2
  MIC: 500 µg/mL
A. baumannii biofilms; Table 4
  EBEC μg/mL (μM) A. baumannii: ~7,500 μg/mL

## NCCCNCCCNCc1cc(CNCCCNCCCN)cc(CNCCCNCCCN)c1 [CZ-52, N^1,N^1′,N^1″-(benzene-1,3,5-triyltris(methylene))tris(N^3-(3-aminopropyl)propane-1,3-diamine), hydrochloride salt]
L-929 cells (ATCC CCL-1); Table 9A, 3.125 μg/mL
  Results Pass/Fail: Pass (receives a passing score (Pass) if the reactivity grade is not greater than grade 2 or a mild reactivity)
L-929 cells (ATCC CCL-1); Table 9A, 6.25 μg/mL
  Results Pass/Fail: Fail (a numerical grade greater than 2 is considered a cytotoxic effect, or a failing score (Fail))
L-929 cells (ATCC CCL-1); Table 9A, 12.5 μg/mL
  Results Pass/Fail: Fail (a numerical grade greater than 2 is considered a cytotoxic effect, or a failing score (Fail))
L-929 cells (ATCC CCL-1); Table 9A, 25 μg/mL
  Results Pass/Fail: Fail (a numerical grade greater than 2 is considered a cytotoxic effect, or a failing score (Fail))
L-929 cells (ATCC CCL-1); Table 9A, 1.563 (unit not given)
  Results Pass/Fail: Pass (receives a passing score (Pass) if the reactivity grade is not greater than grade 2 or a mild reactivity)
A. baumannii biofilms; Table 4
  EBEC μg/mL (μM) A. baumannii: ~7,000 μg/mL
A. baumannii biofilms; Table 4, value in parentheses
  EBEC μg/mL (μM) A. baumannii: (~14,000) μM
